Data: PMC9701195, “Structural basis for lipid and copper regulation of the ABC transporter MsbA” (Nature Communications, 2022)
Read-outs that look alike come from different tables or passages of the source.

B1: MsbA (ATP-binding cassette transporter MsbA, Escherichia coli) (natural protein)
chain: HNDKDLSTWQTFRRLWPTIAPFKAGLIVAGVALILNAASDTFMLSLLKPLLDDGFGKTDRSVLVWMPLVVIGLMILRGITSYVSSYCISWVSGKVVMTMRRRLFGHMMGMPVSFFDKQSTGTLLSRITYDSEQVASSSSGALITVVREGASIIGLFIMMFYYSWQLSIILIVLAPIVSIAIRVVSKRFRNISKNMQNTMGQVTTSAEQMLKGHKEVLIFGGQEVETKRFDKVSNRMRLQGMKMVSASSISDPIIQLIASLALAFVLYAASFPSVMDSLTAGTITVVFSSMIALMRPLKSLTNVNAQFQRGMAACQTLFTILDSEQEKDEGKRVIERATGDVEFRNVTFTYPGRDVPALRNINLKIPAGKTVALVGRSGSGKSTIASLITRFYDIDEGEILMDGHDLREYTLASLRNQVALVSQNVHLFNDTVANNIAYARTEQYSREQIEEAARMAYAMDFINKMDNGLDTVIGENGVLLSGGQRQRIAIARALLRDSPILILDEATSALDTESERAIQAALDELQKNRTSLVIAHRLSTIEKADEIVVVEDGVIVERGTHNDLLEHRGVYAQLHKMQFGQ
notes: MsbA, Escherichia coli, UniProt P60752; msbA gene amplified from E. coli genomic DNA into pCDF-1b (pCDF-MsbA), N-terminal TEV-cleavable His6; Homodimer; co-purifies with copper(II), one site per subunit at the N-terminus (Met-His-Asn-Asp); For cryo-EM it was loaded with copper(II), apo or trapped with ADP-vanadate, with KDL; also called wild-type MsbA; the transporter; source: E. coli (DE3) …

How the values were obtained:
MsbA [1] = target: T1, MsbA (Escherichia coli, UniProt P60752); assay: cryoEM structure […] Å and native MS; type: binding; conditions: outward-facing, with KDL and copper(II), NBD site
T1 construct: full length, TEV-cleavable N-terminal His6 tag cut (intact native N-terminus MHND...), expressed in E. coli BL21-AI, delipidated, homodimer in C10E5
T1 sequence (P60752 whole entry): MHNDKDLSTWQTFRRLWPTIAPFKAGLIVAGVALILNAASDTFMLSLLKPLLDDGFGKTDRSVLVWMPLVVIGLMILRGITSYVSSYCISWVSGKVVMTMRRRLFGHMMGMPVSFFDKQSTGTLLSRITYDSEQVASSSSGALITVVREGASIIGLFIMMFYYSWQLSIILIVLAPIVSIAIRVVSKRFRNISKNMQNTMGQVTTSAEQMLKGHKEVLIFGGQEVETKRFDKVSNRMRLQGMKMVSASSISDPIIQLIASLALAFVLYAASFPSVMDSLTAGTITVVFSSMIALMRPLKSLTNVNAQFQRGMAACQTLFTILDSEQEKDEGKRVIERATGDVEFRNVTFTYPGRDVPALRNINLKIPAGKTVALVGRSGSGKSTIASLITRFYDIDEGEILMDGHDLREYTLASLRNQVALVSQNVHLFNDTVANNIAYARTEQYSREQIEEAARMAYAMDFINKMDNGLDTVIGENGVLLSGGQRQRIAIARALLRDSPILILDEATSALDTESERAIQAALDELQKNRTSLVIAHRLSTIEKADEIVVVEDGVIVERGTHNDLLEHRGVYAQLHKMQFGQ

MsbA [2] = target: T1, MsbA; assay: biochemical; parameters: native mass spectrometry lipid titration of ADP-trapped open outward-facing MsbA, sequential lipid binding model; conditions: first lipid; MsbA trapped with ADP and VO4, open outward-facing; read-out: KD1
Protocol: Lipids were prepared as previously described, in which lipids dissolved in chloroform were dried under nitrogen flow placed under vacuum overnight followed by dissolving in water. The concentration of MsbA was determined using a DC protein assay (BioRad) with bovine serum albumin as the standard. MsbA was incubated with lipids at varying concentrations and mixed with 200 mM ammonium acetate supplemented with 2x CMC lauryldimethylamine oxide (LDAO) at 1:1 volume ratio. Samples were incubated in the nano electrospray ionization source chamber for a minute to reach equilibrium prior to data acquisition. These samples analyzed on Orbitrap Exactive Plus EMR mass spectrometer (Thermo Scientific) operating at identical settings as described above. The mass spectra for each titration event were obtained in triplicate. The mass spectra were deconvoluted using UniDec[55] and the resulting peak intensities for apo and lipid-bound protein were determined. The relative abundance for each species was determined by dividing the peak intensity by the total intensity to convert to mole fraction for each independent experiment. For MsbA (P) binding the N^th lipid (Ln), we applied the following sequential lipid binding model: PLn−1+L⇔KAPLn where: KAn=PLn/[PLn−1]L To determine the impact of MsbA conformation on lipid binding affinity, analogous experiments were performed using MsbA trapped in an open, OF conformation with adenosine diphosphate (ADP) and [compound left out] (VO4). […] For example, in the presence of 0.4 μM of KDL, [compound left out]-trapped MsbA binds up to two lipids whereas the non-trapped protein binds only one KDL (Fig. 3b–c). […] The binding of POPC and POPE are reminiscent of that for MsbA partially loaded with copper(II). […] For MsbA with reduced copper(II) binding, additional 1 mM MgCl2 was added to all buffer and MsbA solution in the purification step using Ni-NTA beads. Copper(II) saturated MsbA was obtained by adding 20 uM copper (II) acetate then buffer exchanged using Bio-Spin column to remove excess copper(II). MsbA trapped by [compound left out] was obtained by adding ATP and MgCl2 to MsbA to reach the final concentration of 10 mM for both then incubating at room temperature for 10 min. After incubation, [compound left out] (pH 10) was added to reach final concentration of […] followed by incubation at 37 °C for 10 min. MsbA samples was buffer exchanged using Bio-Spin column to 200 mM ammonium acetate supplemented with 2x CMC C10E5 for native MS studies. To prepare MsbA samples for Cryo-EM studies, MsbA and trapped MsbA were preloaded with copper(II) then purified by Superdex 200 Increase 10/300 GL size exclusion column equilibrated with 200 mM NaCl, 20 mM HEPES and 2x CMC C10E5 without glycerol. […]

MsbA [3] = target: T1, MsbA; assay: biochemical; parameters: native mass spectrometry lipid titration, sequential lipid binding model, mole fractions of apo and lipid-bound MsbA; conditions: first lipid; MsbA partially loaded with copper(II); read-out: KD1
Protocol: Lipids were prepared as previously described, in which lipids dissolved in chloroform were dried under nitrogen flow placed under vacuum overnight followed by dissolving in water. The concentration of MsbA was determined using a DC protein assay (BioRad) with bovine serum albumin as the standard. MsbA was incubated with lipids at varying concentrations and mixed with 200 mM ammonium acetate supplemented with 2x CMC lauryldimethylamine oxide (LDAO) at 1:1 volume ratio. Samples were incubated in the nano electrospray ionization source chamber for a minute to reach equilibrium prior to data acquisition. These samples analyzed on Orbitrap Exactive Plus EMR mass spectrometer (Thermo Scientific) operating at identical settings as described above. The mass spectra for each titration event were obtained in triplicate. The mass spectra were deconvoluted using UniDec[55] and the resulting peak intensities for apo and lipid-bound protein were determined. The relative abundance for each species was determined by dividing the peak intensity by the total intensity to convert to mole fraction for each independent experiment. For MsbA (P) binding the N^th lipid (Ln), we applied the following sequential lipid binding model: PLn−1+L⇔KAPLn where: KAn=PLn/[PLn−1]L To better understand MsbA-lipid interactions, we determined equilibrium binding constants for MsbA binding to different lipids. For these studies, we selected 1,1′,2,2′-tetraoleoyl-cardiolipin (TOCDL, 72:4) or phosphatidic acid (PA), phosphatidylcholine (PC), phosphatidylethanolamine (PE), phosphatidylglycerol (PG), and phosphatidylserine (PS) containing the acyl chain composition, 1-palmitoyl-2-oleoyl (PO, 16:0-18:1). We also included 3-deoxy-D-manno-oct-2-ulosonic acid (Kdo)2-lipid A (KDL), an LPS precursor known to stimulate MsbA ATPase activity[22]–[24]. Except for PC, these lipids are found in E. coli[40]. MsbA partially and fully loaded with copper(II) was titrated with each lipid followed by recording their native mass spectra (Supplementary Figs. 3–6). The mole fractions of apo and lipid bound states of MsbA were extracted from the deconvoluted MS data and used to determine the equilibrium dissociation constant (KDN) for the Nth binding event (Supplementary Tables 4–5). […] The two tightest binding lipids for MsbA loaded with copper(II) were TOCDL (KD1 = 1.6 µM) and KDL (KD1 = 0.6 µM). POPG binding affinities were largely independent of the copper(II) bound state of MsbA. […] For MsbA with reduced copper(II) binding, additional 1 mM MgCl2 was added to all buffer and MsbA solution in the purification step using Ni-NTA beads. Copper(II) saturated MsbA was obtained by adding 20 uM copper (II) acetate then buffer exchanged using Bio-Spin column to remove excess copper(II). […]

[4] = target: the molecule itself; assay: native MS; MsbA in 200 mM ammonium acetate with 2x CMC C10E5; Orbitrap Exactive Plus EMR; partially or fully copper(II)-loaded, also trapped with ADP and vanadate

Row | Molecule | Kd (MsbA [2]) [µM] | Kd (MsbA [3]) [µM] | further results
1 | Nc1ncnc2c1ncn2[C@@H]1O[C@H](COP(=O)(O)OP(=O)(O)O)[C@@H](O)[C@H]1O [ADP] | – | – | cryoEM structure 3.6 Å and native MS (MsbA [1]; vanadate-trapped): there is clear density for ADP·VO4 in the NBDs
2 | CCCCCCCC/C=C\CCCCCCCC(=O)O[C@H](COC(=O)CCCCCCCCCCCCCCC)COP(=O)(O)OC[C@H](N)C(=O)O [POPS] | 2.3 ± 0.3 | – | –
3 | CCCCCCCC/C=C\CCCCCCCC(=O)O[C@H](COC(=O)CCCCCCCCCCCCCCC)COP(=O)([O-])OCC[N+](C)(C)C [POPC] | 15.1 ± 0.5 | 20.4 ± 1.4 | –
4 | CCCCCCCC/C=C\CCCCCCCC(=O)O[C@H](COC(=O)CCCCCCCCCCCCCCC)COP(=O)(O)OCCN [POPE] | – | 12.4 ± 0.7 | –
5 | [O]=[V]([OH])([OH])[OH] [vanadate] | – | – | cryoEM structure 3.6 Å and native MS (MsbA [1]; ADP-vanadate-trapped): there is clear density for ADP·VO4 in the NBDs
6 | CCCCCCCC/C=C\CCCCCCCC(=O)O[C@H](COC(=O)CCCCCCCCCCCCCCC)COP(=O)(O)O [POPA] | 2.2 ± 0.01 | 14.7 ± 1.5 | –
7 | CCCCCCCC/C=C\CCCCCCCC(=O)O[C@H](COC(=O)CCCCCCCCCCCCCCC)COP(=O)(O)OCC(O)CO (some centres unmarked) [POPG] | 2.6 ± 0.1 | 4.9 ± 0.4 | –
8 | B1 | – | – | stoichiometry N [4]: 2
